Data taken from paper PMC13401508 (Pharmacological research, 2026).

Test: Stability in liver microsomes with NADPH and UDPGA
Assay type: in vitro ADME
Conditions: liver microsomes; all species (human, monkey, dog, rat, mouse), NADPH and UDPGA added; read-out: t½ in liver microsomes
Description: Test samples were incubated at 37 °C, and Verapamil was used as a positive control. Samples were drawn from the incubation solution at different timepoints, centrifuged, then diluted with ultra-pure H20 and analyzed via LC-MS/MS. The natural logarithm of the remaining parent drug at each timepoint was plotted against incubation time, and the following equation was used to calculate the in vitro half-life:
in vitro t1/2 = -(0.693/k), where k is the rate constant.

Cc1cc(NC(=O)CCc2nnc(-c3ccccc3)o2)c(C)cc1N [IVMT-Rx-4]
half-life: > 3.5 h
